Data as given in patent US10995357B2, “Rapid antimicrobial susceptibility testing based on a unique spectral intensity ratio analysis via single fluorescence membrane dye staining and flow cytometry” (POCARED Diagnostics LTD., priority 2017, dated 2021).
Where two headings read alike, the source gives them in different places.

Legend:
Assay type in all cases: cell-based
E. coli [1] = test: Rapid AST/MIC by spectral intensity ratio (SIR), FM 1-43 staining and flow cytometry, directly from positive blood culture; conditions: E. coli strain from positive blood culture; scatter plot unchanged at high antibiotic concentrations
Method: (§1) In general, the method includes; blood culture centrifugation, bacterial antimicrobial exposure for 2 to 4 hours, bacteria staining with a single fluorescence dye followed by a flow cytometric measurement, and mathematical analysis.
(§2) 31 positive blood cultures were obtained from Sheba Medical Center (Ramat-Gan, Israel) and tested for antimicrobial susceptibility with gentamicin and ampicillin antibiotics (Sigma-Aldrich, USA). A total of 62 positive blood samples-antibiotics combinations were tested. • a) Positive blood samples were received from Sheba Medical Center, 2 ml of each sample were centrifuged for 15 min at 24×g and Supernatants were diluted 1:1000 with Cation-Adjusted Mueller Hinton Broth (CAMHB). • b) Antimicrobial stock solutions were prepared according to CLSI recommendations, and were diluted in CAMHB, to a concentration which was 2 fold higher from the highest concentration recommended for each antimicrobial combination (“Class II Special Controls Guidance Document: Antimicrobial Susceptibility Test (AST) Systems”, Aug. […] As a positive control, a tube with bacterial sample solution (a) without antimicrobial agent. • h) All tubes were incubated at 37° C. • i) 2-4 hours from incubation initiation, 200 μl from each tube were transferred into a fresh tube, dyed with 2 μl of Synaptogreen or FM 1-43 (Sigma-Aldrich; Molecular Probes, respectively) and measured by a flow cytometer. The rest of the sample was further incubated for 16-20 hours and then was visually evaluated for growth.
(§3) In order to quantify the influence of a certain antimicrobial exposure we define the spectral intensity ratio (SIR) as follows: […]
(§4) The MIC is calculated by plotting the spectral intensity ratio (SIR) as a function of the antimicrobial concentration and approximating it to a step function in the form of […]

K. pneumonia = test: as above; conditions: 2-4 hours antibiotic exposure, SIR step function fit
Method: as §1, §2, §3, §4

[2] = system: 31 positive blood cultures (E. coli, K. pneumonia, A. baummanii, P. mirabilis, E. cloacae, Aeromonass spp., K. oxytoca); test: Reference macro dilution method, visual growth after 16-20 hours, positive blood cultures; conditions: for Reference Method Susceptibilities I: number of strains intermediate out of 31 positive blood cultures; for Reference Method Susceptibilities R: number of strains resistant out of 31 positive blood cultures; for Reference Method Susceptibilities S: number of strains susceptible out of 31 positive blood cultures
Method: 31 positive blood cultures were obtained from Sheba Medical Center (Ramat-Gan, Israel) and tested for antimicrobial susceptibility with gentamicin and ampicillin antibiotics (Sigma-Aldrich, USA). A total of 62 positive blood samples-antibiotics combinations were tested. • a) Positive blood samples were received from Sheba Medical Center, 2 ml of each sample were centrifuged for 15 min at 24×g and Supernatants were diluted 1:1000 with Cation-Adjusted Mueller Hinton Broth (CAMHB). • b) Antimicrobial stock solutions were prepared according to CLSI recommendations, and were diluted in CAMHB, to a concentration which was 2 fold higher from the highest concentration recommended for each antimicrobial combination (“Class II Special Controls Guidance Document: Antimicrobial Susceptibility Test (AST) Systems”, Aug. 28, 2009, FDA). • c) For each sample/antimicrobial combination, a set of tubes was prepared for which 1 ml of CAMHB medium was added, except for the first tube. • d) To each first tube of the set, 2 ml from the antimicrobial stock solution (b) was dispensed. • e) From the first tube a serial dilutions of 2 folds were prepared by transferring 1 ml of the solution to the next tube until the lowest required concentration by CLSI. 1 ml was discarded from the last tube in each set of tubes. • f) To each tube in the set, 1 ml of bacterial sample solution (a) was added. • g) For each serial dilutions set, two controls were added. As a negative control, a tube with 2 ml of CAMHB. As a positive control, a tube with bacterial sample solution (a) without antimicrobial agent. • h) All tubes were incubated at 37° C. • i) 2-4 hours from incubation initiation, 200 μl from each tube were transferred into a fresh tube, dyed with 2 μl of Synaptogreen or FM 1-43 (Sigma-Aldrich; Molecular Probes, respectively) and measured by a flow cytometer. The rest of the sample was further incubated for 16-20 hours and then was visually evaluated for growth.
62 samples (31 positive blood cultures and 2 antibiotics combination) were analyzed in triplicates. Each sample was measured by the flow cytometer and the MIC was calculated using the spectral intensity ratio (SIR) calculation and step function estimation. The bacteria identified within the samples were; E. coli (15 samples), K. pneumonia (6 samples), A. baummanii (4 samples), P. mirabilis (2 samples), E. cloacae (2 samples), Aeromonass spp. (1 sample), and K. oxytoca (1 sample).
Tables 1 and 2 present the results of the positive blood sample experiment using the macro dilution as the reference method. […] There are no errors as defined by “Class II Special Controls Guidance Document: Antimicrobial Susceptibility Test (AST) Systems,” Aug. 28, 2009, FDA.

[3] = system: 30 clinical isolates of E. coli, K. pneumoniae, E. cloacae, P. mirabilis, and C. freundii; test: Reference macro dilution method, visual growth after 16-20 hours, clinical isolates; conditions: for Reference Method Susceptibilities I: number of strains intermediate out of 30 clinical isolates; for Reference Method Susceptibilities R: number of strains resistant out of 30 clinical isolates; for Reference Method Susceptibilities S: number of strains susceptible out of 30 clinical isolates
Method: A total of 90 isolates-antibiotics combinations were tested. • a) All strains were cultured onto 5% sheep blood agar (Hylabs, Israel), following overnight incubation, colonies were harvested and suspended in Phosphate Buffer Saline (PBS, Sigma-Aldrich). […] 1 ml was discarded from the last tube in each set of tubes. • g) For each serial dilutions set, two controls were added. As a negative control, a tube with 2 ml of CAMHB. […] The rest of the sample was further incubated for 16-20 hours and then was visually evaluated for growth.

C. freundii = test: Rapid AST/MIC by spectral intensity ratio (SIR), FM 1-43 staining and flow cytometry, from clinical isolates; conditions: C. freundii clinical isolate; up to 32 μg/ml; SIR almost constant
Method: (§5) Our method includes bacterial antimicrobial treatment for 2 to 4 hours, bacteria staining with a single fluorescence dye followed by a flow cytometric measurement, and mathematical analysis. The following paragraphs describe the method in details.
(§6) A total of 90 isolates-antibiotics combinations were tested. • a) All strains were cultured onto 5% sheep blood agar (Hylabs, Israel), following overnight incubation, colonies were harvested and suspended in Phosphate Buffer Saline (PBS, Sigma-Aldrich). […] The rest of the sample was further incubated for 16-20 hours and then was visually evaluated for growth.
(§7) In order to quantify the influence of a certain antimicrobial treatment, we define the spectral intensity ratio (SIR) as follows: […]
(§8) The MIC is calculated by plotting the spectral intensity ratio (SIR) as a function of the antimicrobial concentration and approximating it to a step function in the form of
(§9) Where a, b, and c are parameters and erf is the error function. The parameters are used to approximate the measured SIR to a step function; a is a scaling parameter, b determines the step slope, and c is the MIC value. […]

E. coli [4] = test: as above; conditions: E. coli clinical isolate; 2-4 hours antibiotic exposure; SIR step function fit
Method: as §5, §6, §7, §8, §9

| Compound | Susceptibility (SIR as a function of antibiotic concentration) (E. coli [1]) | MIC (K. pneumonia; Klebsiella pneumoniae, read-out: MIC) | Reference Method Susceptibilities I [2] | Reference Method Susceptibilities R [2] | Reference Method Susceptibilities S [2] | Reference Method Susceptibilities I [3] | Reference Method Susceptibilities R [3] | Reference Method Susceptibilities S [3] | MIC (K. pneumonia) | Susceptibility (SIR as a function of antibiotic concentration) (C. freundii) | MIC (E. coli [4]) |
| --- | --- | --- | --- | --- | --- | --- | --- | --- | --- | --- | --- |
| CC1(C)S[C@@H]2[C@H](NC(=O)[C@H](N)c3ccccc3)C(=O)N2[C@H]1C(=O)O [Ampicillin, ampicillin] | resistant | 4 µg/mL | 0 | 26 | 5 | 5 | 9 | 16 |  |  |  |
| gentamicin |  |  | 0 | 10 | 21 | 4 | 5 | 21 | 1 µg/mL | resistant | 2 µg/mL |
